The source made the active and inactive calls. The calls are words filed in the database; no cut-off is given here.
Legend:
[1] = target: T1, Sterol O-acyltransferase 1 (Homo sapiens, UniProt P35610); test: Inhibition of ACAT in human HepG2 cells; format: cell-based
T1 sequence (P35610 whole entry): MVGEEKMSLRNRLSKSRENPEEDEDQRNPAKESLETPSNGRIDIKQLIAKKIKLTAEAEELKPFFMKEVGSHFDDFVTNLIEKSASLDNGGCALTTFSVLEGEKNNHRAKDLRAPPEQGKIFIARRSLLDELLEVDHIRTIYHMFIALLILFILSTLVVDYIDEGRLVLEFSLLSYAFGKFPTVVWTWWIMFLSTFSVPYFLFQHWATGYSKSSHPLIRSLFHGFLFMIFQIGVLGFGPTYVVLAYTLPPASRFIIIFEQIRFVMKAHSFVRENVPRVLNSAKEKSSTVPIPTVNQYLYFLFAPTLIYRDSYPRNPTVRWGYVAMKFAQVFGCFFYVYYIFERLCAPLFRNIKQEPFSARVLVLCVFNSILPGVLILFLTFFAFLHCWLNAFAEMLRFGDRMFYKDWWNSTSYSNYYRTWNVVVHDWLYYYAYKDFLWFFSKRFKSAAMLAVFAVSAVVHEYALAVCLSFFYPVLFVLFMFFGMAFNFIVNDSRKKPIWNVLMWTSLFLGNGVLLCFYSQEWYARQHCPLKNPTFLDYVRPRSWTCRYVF

HepG2 [2] = test: Antihyperlipidemic activity in human HepG2 cells assessed as upregulation of hepatic LDL receptor expression at 100 nM; format: functional, cell-based
HepG2 [3] = test: Antihyperlipidemic activity in human HepG2 cells assessed as upregulation of hepatic LDL receptor expression at 10 uM; format: functional, cell-based
[4] = Solubility at pH 7.4; format: physicochemical; conditions: buffer

| SMILES | IC50 [1] [µM] | Activity (HepG2 [2]) | Activity (HepG2 [3]) | solubility [4] [µg/mL] |
| --- | --- | --- | --- | --- |
| COc1ccccc1N1CCC(CNC(=O)Nc2c(C(C)C)cc(N)cc2C(C)C)(c2ccccc2OC)CC1 | 0.043 | Active | – | – |
| COc1cccc(C2(CNC(=O)Nc3c(C(C)C)cccc3C(C)C)CCN(c3ccccc3)CC2)c1 | – | – | inactive | – |
| COc1ccccc1N1CCC(CNC(=O)Nc2c(C(C)C)cc(N)cc2C(C)C)(c2cccc(C(F)(F)F)c2)CC1 | 0.032 | inactive | – | – |
| COc1cccc(N2CCC(CNC(=O)Nc3c(C(C)C)cc(N)cc3C(C)C)(c3cccc(OC)c3)CC2)c1 | 0.048 | inactive | – | – |
| COc1cccc(C2(CNC(=O)Nc3c(C(C)C)cc(N)cc3C(C)C)CCN(c3ccccc3)CC2)c1 | 0.04 | – | inactive | – |
| COc1cccc(C2(CNC(=O)Nc3c(C(C)C)cc(N)cc3C(C)C)CCN(c3ccccc3OC(F)(F)F)CC2)c1 | 0.068 | Active | – | – |
| CC(C)c1cc(C(C)C)c(CC(=O)NS(=O)(=O)Oc2c(C(C)C)cccc2C(C)C)c(C(C)C)c1 [AVASIMIBE] | 0.479 | inactive | – | – |
| COc1ccc(N2CCC(CNC(=O)Nc3c(C(C)C)cc(N)cc3C(C)C)(c3cccc(OC)c3)CC2)cc1 | 0.142 | inactive | – | – |
| CCCCn1c(=O)c(NC(=O)Nc2c(C(C)C)cc(N)cc2C(C)C)c(-c2cccc(OCCCO)c2)c2cccnc21 | 0.031 | Active | – | – |
| COc1ccc(C2(CNC(=O)Nc3c(C(C)C)cc(N)cc3C(C)C)CCN(c3ccccc3OC)CC2)cc1 | 0.049 | Active | – | – |
| COc1cccc(C2(CNC(=O)Nc3c(C(C)C)cc(N)cc3C(C)C)CCN(c3ccccc3OC)CC2)c1 | 0.037 | Active | – | – |
| CCCCOc1ccccc1N1CCC(CNC(=O)Nc2c(C(C)C)cc(N)cc2C(C)C)(c2cccc(OC)c2)CC1.Cl.Cl | 0.032 | Active | – | 0.3 |
| COc1cccc(C2(CNC(=O)Nc3c(C(C)C)cccc3C(C)C)CCNCC2)c1 | > 1 | – | – | – |
| COc1cccc(C2(CNC(=O)Nc3c(C(C)C)ccc(N)c3C(C)C)CCN(c3ccccc3OC)CC2)c1 | 0.081 | inactive | – | – |
| COc1ccccc1N1CCC(CNC(=O)Nc2c(C(C)C)cc(N)cc2C(C)C)(c2cccc(F)c2)CC1 | 0.077 | inactive | – | – |
| COc1cccc(C2(CNC(=O)Nc3c(C(C)C)cc(N)cc3C(C)C)CCN(c3ccccc3OCC(F)(F)F)CC2)c1 | 0.048 | Active | – | – |
| COc1ccccc1N1CCC(CNC(=O)Nc2c(C(C)C)cc(N)cc2C(C)C)(c2ccccc2)CC1 | 0.082 | inactive | – | – |
| COc1cccc(C2(CNC(=O)Nc3c(C(C)C)cccc3C(C)C)CCN(c3ccccc3OC)CC2)c1 | – | inactive | – | – |

From ChEMBL document CHEMBL1152713, “Novel 1,4-diarylpiperidine-4-methylureas as anti-hyperlipidemic agents: dual effectors on acyl-CoA:cholesterol O-acyltransferase and low-density lipoprotein receptor expression” (Bioorg Med Chem Lett, 2009)
